The record followed here is publication PMC7828477, “Synthesis and Evaluation of Novel Iminosugars Prepared from Natural Amino Acids” (Molecules, 2021).

Holding throughout (assay): p-nitrophenyl glycoside hydrolysis, A405, […] min
What all share (assay type): biochemical

Experiment [1] concerns the target T1, α-L-fucosidase from Homo sapiens (Homo sapiens, UniProt P04066).
T1 construct: gene FUCA1
T1 sequence (P04066 32-466): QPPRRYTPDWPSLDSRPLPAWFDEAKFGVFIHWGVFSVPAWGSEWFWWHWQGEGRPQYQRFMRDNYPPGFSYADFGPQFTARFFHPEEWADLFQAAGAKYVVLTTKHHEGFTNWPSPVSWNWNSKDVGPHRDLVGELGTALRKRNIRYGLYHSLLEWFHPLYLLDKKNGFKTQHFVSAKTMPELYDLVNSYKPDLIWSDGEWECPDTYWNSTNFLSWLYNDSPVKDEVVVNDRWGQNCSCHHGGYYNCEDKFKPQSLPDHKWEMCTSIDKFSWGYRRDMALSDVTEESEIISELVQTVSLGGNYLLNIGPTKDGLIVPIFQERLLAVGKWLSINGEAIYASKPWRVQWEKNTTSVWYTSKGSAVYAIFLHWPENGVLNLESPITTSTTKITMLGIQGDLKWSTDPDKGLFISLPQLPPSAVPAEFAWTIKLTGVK
Conditions: read-out: α-L-Fuc.

The target in experiment [2] is α-galactosidase from Green coffee (Coffea arabica, UniProt Q42656). Particulars: read-out: α-Gal.
For experiment [3], the target named is T2, β-galactosidase from Escherichia coli (Escherichia coli, UniProt P00722).
T2 construct: gene lacZ
Conditions: read-out: β-Gal.

Where a name gives a salt, the structure may show the parent alone.

T2 sequence (P00722 2-1024): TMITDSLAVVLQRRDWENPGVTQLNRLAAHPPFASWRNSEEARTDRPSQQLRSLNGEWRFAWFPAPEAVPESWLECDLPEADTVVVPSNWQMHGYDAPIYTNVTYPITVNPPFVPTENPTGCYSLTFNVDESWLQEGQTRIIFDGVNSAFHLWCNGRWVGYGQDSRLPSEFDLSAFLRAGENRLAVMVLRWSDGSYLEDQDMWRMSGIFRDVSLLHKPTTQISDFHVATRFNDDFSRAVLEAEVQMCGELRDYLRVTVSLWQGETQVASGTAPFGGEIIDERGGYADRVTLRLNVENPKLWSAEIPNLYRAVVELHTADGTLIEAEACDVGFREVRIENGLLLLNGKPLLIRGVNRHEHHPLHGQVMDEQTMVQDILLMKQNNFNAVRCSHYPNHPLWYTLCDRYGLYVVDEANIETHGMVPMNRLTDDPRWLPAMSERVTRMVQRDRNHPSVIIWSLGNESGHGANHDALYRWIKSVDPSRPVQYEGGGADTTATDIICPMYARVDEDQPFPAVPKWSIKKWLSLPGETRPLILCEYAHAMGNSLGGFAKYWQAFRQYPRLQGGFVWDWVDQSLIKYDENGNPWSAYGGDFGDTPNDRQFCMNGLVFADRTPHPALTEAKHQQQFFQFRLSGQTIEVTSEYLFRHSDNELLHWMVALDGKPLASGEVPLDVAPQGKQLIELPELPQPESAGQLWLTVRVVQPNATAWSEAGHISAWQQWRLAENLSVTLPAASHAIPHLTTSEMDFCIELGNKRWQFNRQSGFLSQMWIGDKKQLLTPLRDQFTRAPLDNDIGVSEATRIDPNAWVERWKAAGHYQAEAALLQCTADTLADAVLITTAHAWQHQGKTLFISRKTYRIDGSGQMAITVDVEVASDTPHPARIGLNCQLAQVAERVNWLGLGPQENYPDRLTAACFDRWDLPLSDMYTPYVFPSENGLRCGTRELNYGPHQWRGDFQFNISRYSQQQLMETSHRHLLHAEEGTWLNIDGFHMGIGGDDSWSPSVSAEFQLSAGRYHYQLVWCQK
Chain of α-galactosidase from Green coffee (Q42656 16-378): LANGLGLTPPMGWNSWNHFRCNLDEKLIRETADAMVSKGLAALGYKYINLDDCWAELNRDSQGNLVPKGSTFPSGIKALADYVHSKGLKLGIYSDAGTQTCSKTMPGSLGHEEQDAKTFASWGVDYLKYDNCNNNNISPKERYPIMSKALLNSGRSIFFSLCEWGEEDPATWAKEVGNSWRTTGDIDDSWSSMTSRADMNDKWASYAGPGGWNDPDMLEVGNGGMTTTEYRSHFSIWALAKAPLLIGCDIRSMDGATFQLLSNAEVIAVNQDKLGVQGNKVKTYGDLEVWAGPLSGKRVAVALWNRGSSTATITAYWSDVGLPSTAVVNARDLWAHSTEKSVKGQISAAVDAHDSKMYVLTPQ

As for `C[C@@H]1NC[C@H]2[C@H](CO)[C@H]2[C@H]1O` [6b, (1S,4S,5R,6S,7S)-7-(hydroxymethyl)-4-methyl-3-azabicyclo[4.1.0]heptan-5-ol], in experiment [1], the activity at 5000 µM turned out to be 142%. In the case of `O=C(O)[C@H]1[C@@H]2CN[C@@H](CO)[C@@H](O)[C@@H]21` [10a, (1R,4S,5S,6S,7S)-7-carboxy-5-hydroxy-4-(hydroxymethyl)-3-azabicyclo[4.1.0]heptan-3-ium trifluoroacetate], the activity at 5000 µM in experiment [2] amounted to 154%. In the case of `OC[C@@H]1[C@@H]2CN[C@@H](CO)[C@@H](O)[C@H]12` [11b], the activity at 5000 µM in experiment [3] came out at 25%.
